Measurements as given in patent publication US20100247435A1, “MEASUREMENT OF NEURAL ACTIVITY” (priority 2007, published 2010).

Assay: Biodistribution of 3H compound in rat
Format: in vivo, Rats (Wistar)
Settings: Wistar rat, 2, 5, 20 and 40 min p.i.
Description: A tritiated version of 3-[2,4-Difluoro-phenoxy]-phenyl-pyrazole-1-carboxylic acid amide (“Hammersmith compound” in FIG. 1) was custom prepared by GE Healthcare, Cardiff.
Rats (Wistar, ca. 150 g; Charles River UK Ltd) were injected with 0.37 MBq of [^3H]-3-[2,4-Difluoro-phenoxy]-phenyl-pyrazole-1-carboxylic acid amide, as an intravenous bolus via the tail vein. Rats were killed by cervical dislocation at 2, 5, 20 and 40 min post injection (p.i.). Brain (separated as cortex and hippocampus), blood, and major organs were collected, weighed and burned using a Packard Tissue Oxidizer model 307 (Packard Instrument Co., Meriden, Conn.). Samples were then counted in a β-counter (Rack Beta, Perkin Elmer LAS (UK) Ltd).

NC(=O)n1ccc(-c2ccc(Oc3ccc(F)cc3F)cc2)n1 [[^3H]-3-[2,4-Difluoro-phenoxy]-phenyl-pyrazole-1-carboxylic acid amide]
time activity curves (0.37 MBq i.v., FIG. 1): consistent with reversible binding
brain uptake of the compound (0.37 MBq intravenous bolus via tail vein, % id/g shown in FIG. 1): good
